Assay results as given in patent publication US20240285594A1, “COMPOSITIONS AND METHODS FOR TREATING PAIN IN ANIMALS” (North Carolina State University, priority 2023, published 2024).

Legend:
cortisol = test: Serum cortisol after surgical or sham castration of piglets (Part I, physiological assessment); assay type: in vivo; details: 1 h post-castration, castrated piglets, compared to C (saline) and CL, FM 2.2 mg/kg intranasal, buffered lidocaine intra-inguinal
Experimental: A total of 197 Large White×Duroc cross male piglets from 35 litters were enrolled in the study (Table 1). Piglets were individually identified using ear tags (Allflex Global Piglet ear tags, Allflex Livestock Intelligence, Madison, WI), weighed and randomly allocated to one of eight treatment groups (FIG. 1).
Lidocaine was buffered by mixing 2 ml of 8.4% Sodium Bicarbonate to 20 ml of 2% lidocaine HCl injectable solution to achieve a pH of 6.8 (Lidocaine Hydrochloride, Covetrus, Dublin, Ohio, US). […] Piglets were held by both rear legs by one caretaker with the abdomen facing the individual administrating treatment. Buffered lidocaine was injected intra-inguinally (Picture 1) by a second caretaker using a ½ inch needle (Ideal® D3 20 Gauge, Neogen, Lansing, MI) inserted into a syringe (Prima Tech® 2 cc Bottle Mount Vaccinator, Prima Tech USA, Kenansville, NC). A total of 1.5 ml of buffered lidocaine per injection site was administered intramuscularly (IM) into each inguinal canal (left and right) at a 40-degree angle 5-7 cm from the scrotum and 2-3 cm from the abdominal wall. Piglets enrolled in the control treatment (C, S, CF, SF−T1: (C) Castration plus physiological saline (IM and IN; n=25); T2: (S) Sham plus physiological saline (IM and IN; n=25); T5: (CF) Castration plus flunixin (IN; n=25); T6: (SF) Sham plus flunixin (IN; n=24)) were handled in an identical manner and 1.5 ml of sterile saline was injected in the same two locations as described previously.
Immediately following intra-inguinal injection, piglets enrolled in the FM treatment groups were held in sternal recumbency by one individual and 2.2 mg/kg (Banamine®, Merck Animal Health, Madison, NJ, US) was administered in one nostril using was a MAD® nasal intranasal mucosal atomization device (Telefex Incorporated, Wayne, PA, US) attached to a Prima Tech® 0.5 cc bottle mount vaccinator. The same individual administered the treatment by gently holding the piglet's snout using their non-dominant hand to steady the head and administered the drug with the other hand. Piglets in the control group were handled in the same manner in an equivalent volume of 0.2 ml of sterile saline was administered as described above.
Castration was performed by one trained caretaker from the farm. Piglets were picked up, individually held by both hind legs with head down, and two vertical incisions were made through the skin of the scrotum over each testicle using a scalpel blade. Once the incisions were made, testicles were exposed, spermatic cords cut, and testicles were completely removed by traction. A sham castration was performed to mimic similar handling conditions in which piglets were picked up, held in the same manner, and had pressure applied to the scrotal area by the same individual responsible for castration.
Blood was collected 24 h prior to (−24 h), 1 h (1 h), and 24 h post castration (24 h, FIG. 2). Blood samples were collected using the technique described in other studies. The orbital sinus cavity was punctured using an Excel® disposable hypodermic needle 20G (Exel International, Quebec, Canada) and deposited into a 4 ml BD® red vacutainer serum tube (Med Vet International, Mettawa, IL). All tubes were maintained in a cooler and centrifuged (2,000×g for 15 min at 4° C.) no more than eight hours post-collection to separate serum. […]
Serum cortisol concentrations were quantified using a commercially available EIA kit (Arbor Assays DetectX Cortisol EIA Kit, Product #K003). […]

[1] = UPAPS behavioral pain scoring and rescue analgesia after castration (Part II); assay type: in vivo, piglets; details: -1 h, 0 h and +3 h relative to castration; compared to C (saline)
Experimental: Behavior scoring was obtained in real-time by observing each piglet for 4-min continuously using Unesp-Botucatu pig acute pain scale (UPAPS). Each piglet was scored by one trained observer at the following timepoints: 1 h before castration (−1 h), immediately post-castration (0 h), and 3 h post-castration (+3 h, FIG. 3). The 4-min sampling time was obtained from the methodology previously validated. Treatments were masked, randomized, and applied to each piglet by a senior researcher. The Unesp-Botucatu UPAPS scale evaluates five behavioral items, with each item divided into four descriptive levels. A numerical score was designated from “0” to “3”, with a “0” representing normal behavior (free of pain) and “3” corresponding to pronounced behavioral deviation (severe pain). Therefore, for each timepoint, piglets may receive a score ranging from 0 (min) to 15 (max; Table 3). Total pain scores were then calculated for each piglet per timepoint. […] This is most referred to rescue analgesia in the literature; and was conducted for each behavioral assessment. Total counts were calculated for piglets identified as requiring or not requiring rescue analgesia by treatment and timepoint. […]

prostaglandin E2 (PGE2) = test: Serum PGE2 after castration of piglets (Example 3); assay type: in vivo; details: intra-inguinal lidocaine; any time point
Experimental: Pairwise comparisons of treatments at −24 h: P≥0.77. […] Pairwise comparisons of treatments at 24 h post-castration: P≥0.11.
The objective of this study was to evaluate the effects of intranasal flunixin and intra-inguinal lidocaine application on the castration associated inflammatory response in piglets, as described in Example 1.

Compound: CCN(CC)CC(=O)Nc1c(C)cccc1C [Buffered lidocaine, lidocaine]
- cortisol concentrations (cortisol): no effect
- cortisol concentrations (cortisol; listed as CL): not different
- total UPAPS scores [1]: no effect
- inflammation (PGE2) (prostaglandin E2 (PGE2)): did not mitigate inflammation
